Values joined by “and” are separate entries in the source; they are usually repeats but may differ in a detail not shown here. Equal values may be shown once. Inconclusive results and toxic doses are left out.
Test system: P388 leukemia ip, CD2F1 mice, survival T/C
Test: NCI In Vivo Anticancer Drug Screen. Data for tumor model P388 Leukemia (intraperitoneal) in CD2F1 (CDF1) mice
Conditions: endpoint: median survival time, higher = longer survival
Outline: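 Mice carrying the transplanted tumor received test compound or vehicle. Survival was recorded in each group, and the value is the treated-group measurement divided by that of the vehicle-treated control group.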

[1] = dose: 12.5 mg/kg/injection, schedule: Q01DX009 (ip), vehicle: Klucel (hydroxypropylcellulose) (HPC)
[2] = dose: 25.0 mg/kg/injection, schedule: Q01DX009 (ip), vehicle: Klucel (hydroxypropylcellulose) (HPC)
[3] = dose: 50.0 mg/kg/injection, schedule: Q01DX009 (ip), vehicle: Klucel (hydroxypropylcellulose) (HPC)
[4] = dose: 100.0 mg/kg/injection, schedule: Q01DX009 (ip), vehicle: Klucel (hydroxypropylcellulose) (HPC)
[5] = dose: 50.0 mg/kg/injection, schedule: Q01DX009 (ip), vehicle: saline
[6] = dose: 100.0 mg/kg/injection, schedule: Q01DX009 (ip), vehicle: saline
[7] = dose: 200.0 mg/kg/injection, schedule: Q01DX009 (ip), vehicle: saline
[8] = dose: 100.0 mg/kg/injection, schedule: Q04DX003 (ip), vehicle: Klucel (hydroxypropylcellulose) (HPC)
[9] = dose: 200.0 mg/kg/injection, schedule: Q04DX003 (ip), vehicle: saline with Tween-80
[10] = dose: 400.0 mg/kg/injection, schedule: Q04DX003 (ip), vehicle: saline with Tween-80
[11] = dose: 100.0 mg/kg/injection, schedule: Q04DX002 (ip), vehicle: Klucel (hydroxypropylcellulose) (HPC)
[12] = dose: 50.0 mg/kg/injection, schedule: Q01DX005 (ip), vehicle: saline with Tween-80
[13] = dose: 100.0 mg/kg/injection, schedule: Q01DX005 (ip), vehicle: saline with Tween-80
[14] = dose: 200.0 mg/kg/injection, schedule: Q01DX005 (ip), vehicle: saline with Tween-80
[15] = dose: 100.0 mg/kg/injection, schedule: Q01DX009 (ip), vehicle: saline with Tween-80
[16] = dose: 200.0 mg/kg/injection, schedule: Q01DX009 (ip), vehicle: saline with Tween-80

For `CC1(C)OCC(C2OC(C)(C)OC2C2COC(C)(C)O2)O1` (stereo not given), the T/C [1] was 105 % of control, the T/C [2] was 106 % of control and the T/C [3] was 108 % of control. For the same molecule, the T/C [4] was 100 % of control.

In the case of `CCC[CH2][Ge]([CH2]CCC)([CH2]CCC)[S][Ge]([CH2]CCC)([CH2]CCC)[CH2]CCC`, the T/C [5] is reported as 91 % of control, the T/C [6] is reported as 92 % of control and the T/C [7] is reported as 97 % of control.

For `Cc1ccc(NC(=O)c2cc3ccccc3cc2O)c(C)c1.Cc1ccc(NC(=O)c2cc3ccccc3cc2O)c(C)c1.[Mn+2]`, the T/C [5] was 87 % of control, the T/C [6] was 86 % of control and the T/C [7] was 86 % of control.

For `Nc1nc2cc([N+](=O)[O-])cnc2s1`, the T/C [8] was 103 % of control, the T/C (dose: 200.0 mg/kg/injection, schedule: Q04DX003 (ip), vehicle: Klucel (hydroxypropylcellulose) (HPC)) was 101 % of control and the T/C (dose: 400.0 mg/kg/injection, schedule: Q04DX003 (ip), vehicle: Klucel (hydroxypropylcellulose) (HPC)) was 100 % of control.

For `Cc1noc(N)c1-n1c(C)ccc1C`, the T/C (dose: 100.0 mg/kg/injection, schedule: Q04DX003 (ip), vehicle: saline with Tween-80) was 95 % of control, the T/C [9] was 100 % of control and the T/C [10] was 100 % of control.

With `O=C1SC/C(=N\N=c2/scc(-c3ccccc3)n2-c2ccccc2)N1Cc1ccccc1` the T/C [11] was 90 % of control, the T/C (dose: 200.0 mg/kg/injection, schedule: Q04DX002 (ip), vehicle: Klucel (hydroxypropylcellulose) (HPC)) was 91 % of control and the T/C (dose: 400.0 mg/kg/injection, schedule: Q04DX002 (ip), vehicle: Klucel (hydroxypropylcellulose) (HPC)) was 88 % of control.

In the case of `CC1CC=CC(=O)CC1` (stereo not given), the T/C [3] is reported as 112 % of control and the T/C [4] is reported as 117 % of control.

In the case of `COc1ccc2c(c1)CCC1=C2CCS1(=O)=O`, the T/C [12] is reported as 99 % of control, the T/C [13] is reported as 97 % of control and the T/C [14] is reported as 103 % of control.

For `O=C(O)CC1SC2(C(=O)N(Cc3ccccc3)c3ccccc32)N(c2ccccc2)C1=O` (stereo not given), the T/C [12] was 89 % of control, the T/C [13] was 95 % of control and the T/C [14] was 89 % of control.

For `CCC1CN2CCc3cc(OC)c(OC)cc3C2C/C1=C/C(=O)O` (stereo not given), the T/C (dose: 50.0 mg/kg/injection, schedule: Q01DX009 (ip), vehicle: suspension in saline) was 95 % of control and the T/C (dose: 100.0 mg/kg/injection, schedule: Q01DX009 (ip), vehicle: suspension in saline) was 92 % of control.

`CC(=O)c1cccc(NC2C(N)C(NC(=O)N(C)C)(C(C)O)C(C)(O)C2(O)COC(=O)c2c(C)cccc2O)c1` (stereo not given) was tested, and the T/C (dose: 0.5 mg/kg/injection, schedule: Q01DX009 (ip), vehicle: other) was 86 % of control, the T/C (dose: 1.0 mg/kg/injection, schedule: Q01DX009 (ip), vehicle: other) was 153 % of control and the T/C (dose: 1.5 mg/kg/injection, schedule: Q01DX009 (ip), vehicle: acid diluted with saline) was 86 % of control.

In the case of `S=C(Nc1ccc(Cl)c(Cl)c1)SCc1ccc2c(c1)OCO2`, the T/C [1] is reported as 116 % of control, the T/C [2] is reported as 120 % of control and the T/C [3] is reported as 121 % of control. The T/C [4] was 112 % of control and 97 % of control.

`CC(C)CC(C(=O)O)N1C(=O)C=CC1=O` (stereo not given) was tested, and the T/C [1] was 93 % of control and the T/C [2] was 107 % of control.

In the case of `O=c1[nH]c2cc(Cl)ccc2nc1/C=C(\O)c1ccccc1O`, the T/C (dose: 60.0 mg/kg/injection, schedule: Q01DX005 (ip), vehicle: saline with Tween-80) is reported as 86 % of control and 95 % of control, the T/C (dose: 120.0 mg/kg/injection, schedule: Q01DX005 (ip), vehicle: saline with Tween-80) is reported as 92 % of control and the T/C (dose: 240.0 mg/kg/injection, schedule: Q01DX005 (ip), vehicle: saline with Tween-80) is reported as 89 % of control and 96 % of control.

In the case of `CC(C)n1c2c([n+](C)c1/C=C/c1ccccc1)C(=O)c1ccccc1C2=O`, the T/C (dose: 0.44 mg/kg/injection, schedule: Q01DX009 (ip), vehicle: saline) is reported as 109 % of control, the T/C (dose: 0.66 mg/kg/injection, schedule: Q01DX009 (ip), vehicle: saline) is reported as 116 % of control and the T/C (dose: 1.0 mg/kg/injection, schedule: Q01DX009 (ip), vehicle: saline) is reported as 119 % of control. The T/C (dose: 1.5 mg/kg/injection, schedule: Q01DX009 (ip), vehicle: saline) was 112 % of control.

`CC(C)CC[NH-].CC(C)CC[NH-].[Cl][Pt+2]([Cl])([Cl])[Cl]` was tested, and the T/C [15] was 176 % of control.

In the case of `CCN(C)C12CN3CN(CN(C3)C1)C2`, the T/C (dose: 100.0 mg/kg/injection, schedule: Q01DX001 (ip), vehicle: saline) is reported as 101 % of control, the T/C (dose: 200.0 mg/kg/injection, schedule: Q01DX001 (ip), vehicle: saline) is reported as 110 % of control and the T/C (dose: 400.0 mg/kg/injection, schedule: Q01DX001 (ip), vehicle: saline) is reported as 102 % of control.

With `O=C(Nc1cccc2c(OC(=O)C(Cl)Cl)c(N=Nc3ccc(S(=O)(=O)Nc4nccs4)cc3)cc(N=Nc3ccc(S(=O)(=O)Nc4nccs4)cc3)c12)C(Cl)Cl` (tested in a mixture with another compound) the T/C (dose: 3.12 mg/kg/injection, schedule: Q01DX009 (ip), vehicle: saline with Tween-80) was 107 % of control, the T/C (dose: 6.25 mg/kg/injection, schedule: Q01DX009 (ip), vehicle: saline with Tween-80) was 104 % of control and the T/C (dose: 12.5 mg/kg/injection, schedule: Q01DX009 (ip), vehicle: saline with Tween-80) was 105 % of control and 110 % of control. For the same molecule, the T/C (dose: 25.0 mg/kg/injection, schedule: Q01DX009 (ip), vehicle: saline with Tween-80) was 105 % of control [middle of 5 runs] and the T/C [16] was 108 % of control [middle of 8 runs].

In the case of `NNC(=O)NN1C(=O)c2cc(S(=O)(=O)O)cc3c(N)c(S(=O)(=O)O)cc(c23)C1=O`, the T/C (dose: 50.0 mg/kg/injection, schedule: Q01DX005 (ip), vehicle: saline) is reported as 98 % of control, the T/C (dose: 100.0 mg/kg/injection, schedule: Q01DX005 (ip), vehicle: saline) is reported as 104 % of control and the T/C (dose: 200.0 mg/kg/injection, schedule: Q01DX005 (ip), vehicle: saline) is reported as 99 % of control.

With `CCCCC(SC(CC)(C(N)=O)c1ccccc1)C(=O)O` (stereo not given) the T/C (dose: 50.0 mg/kg/injection, schedule: Q01DX009 (ip), vehicle: saline with Tween-80) was 108 % of control, the T/C [15] was 105 % of control and the T/C [16] was 106 % of control. For the same molecule, the T/C (dose: 400.0 mg/kg/injection, schedule: Q01DX009 (ip), vehicle: saline with Tween-80) was 97 % of control.

For `CSc1nc(C)cc(N)n1`, the T/C (dose: 12.5 mg/kg/injection, schedule: Q04DX003 (ip), vehicle: Klucel (hydroxypropylcellulose) (HPC)) was 115 % of control, the T/C (dose: 25.0 mg/kg/injection, schedule: Q04DX003 (ip), vehicle: Klucel (hydroxypropylcellulose) (HPC)) was 99 % of control and the T/C (dose: 50.0 mg/kg/injection, schedule: Q04DX003 (ip), vehicle: Klucel (hydroxypropylcellulose) (HPC)) was 99 % of control. The T/C [8] was 103 % of control.

For `Cc1cccc(=O)[n-]1.Cc1cccc(=O)[n-]1.Cc1cccc(=O)[n-]1.Cc1cccc(=O)[n-]1.[Cu+].[Cu+].[Cu+].[Cu+]`, the T/C (dose: 12.5 mg/kg/injection, schedule: Q04DX002 (ip), vehicle: Klucel (hydroxypropylcellulose) (HPC)) was 108 % of control, the T/C (dose: 25.0 mg/kg/injection, schedule: Q04DX002 (ip), vehicle: Klucel (hydroxypropylcellulose) (HPC)) was 109 % of control and the T/C (dose: 50.0 mg/kg/injection, schedule: Q04DX002 (ip), vehicle: Klucel (hydroxypropylcellulose) (HPC)) was 100 % of control. For the same molecule, the T/C [11] was 108 % of control.

For `C=CCNC1=C2C[C@@H](C)C[C@H](OC)[C@H](O)[C@@H](C)/C=C(\C)[C@H](OC(N)=O)[C@@H](OC)/C=C\C=C(/C)C(=O)NC(=CC1=O)C2=O`, the T/C (dose: 6.25 mg/kg/injection, schedule: Q01DX009 (ip), vehicle: DMSO) was 108 % of control, the T/C (dose: 6.25 mg/kg/injection, schedule: Q01DX009 (ip), vehicle: distilled water + Tween-80) was 112 % of control and the T/C (dose: 12.5 mg/kg/injection, schedule: Q01DX009 (ip), vehicle: DMSO) was 100 % of control. The T/C (dose: 12.5 mg/kg/injection, schedule: Q01DX009 (ip), vehicle: distilled water + Tween-80) was 112 % of control and the T/C (dose: 25.0 mg/kg/injection, schedule: Q01DX009 (ip), vehicle: DMSO) was 107 % of control.

For `CS(=O)(=O)OCC(=O)NCC(O)CNC(=O)COS(C)(=O)=O`, the T/C [16] was 175 % of control, the T/C [9] was 181 % of control and the T/C [10] was 162 % of control and 181 % of control.

In the case of `CCOC(=O)c1cnc(N(C)C)nc1SC(=N)N`, the T/C (dose: 50.0 mg/kg/injection, schedule: Q04DX003 (ip), vehicle: saline) is reported as 100 % of control, the T/C (dose: 100.0 mg/kg/injection, schedule: Q04DX003 (ip), vehicle: saline) is reported as 95 % of control and the T/C (dose: 200.0 mg/kg/injection, schedule: Q04DX003 (ip), vehicle: saline) is reported as 104 % of control.
